Results on six compounds are retold here after ChEMBL document CHEMBL1201862, “PubChem BioAssay data set” (2004).

For assay [1], the target named is Kallikrein-7 (Homo sapiens, UniProt P49862). Briefly: Fluorescence Intensity-based biochemical primary high throughput dose response assay to identify activators of kallikrein-7 (K7) zymogen.
Assay [2] can be described thus: Trypanosoma cruzi growth suppression in host cells – NIH3T3 host cells, beta-gal luminescence, confirmation (AID 2044).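 Also: intracellular parasites grown in NIH/3T3 mouse fibroblasts as host cells; luminescent beta-galactosidase reporter signal from transgenic T. cruzi replicating inside host cells; inhibitors lower the luminescence signal.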 In kind it is functional, cell-based.
A short description of assay [3]: NIH3T3 cell viability loss – ATP luminescence, mouse fibroblasts, counter-screen, dose response (AID 2010).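 Also: cells exposed to compound for about 90 hours before reading.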 Type of assay: functional, cell-based.
For assay [4], the target named is T1, Streptokinase A (Streptococcus pyogenes serotype M1, UniProt P10520).
T1 sequence (P10520 whole entry): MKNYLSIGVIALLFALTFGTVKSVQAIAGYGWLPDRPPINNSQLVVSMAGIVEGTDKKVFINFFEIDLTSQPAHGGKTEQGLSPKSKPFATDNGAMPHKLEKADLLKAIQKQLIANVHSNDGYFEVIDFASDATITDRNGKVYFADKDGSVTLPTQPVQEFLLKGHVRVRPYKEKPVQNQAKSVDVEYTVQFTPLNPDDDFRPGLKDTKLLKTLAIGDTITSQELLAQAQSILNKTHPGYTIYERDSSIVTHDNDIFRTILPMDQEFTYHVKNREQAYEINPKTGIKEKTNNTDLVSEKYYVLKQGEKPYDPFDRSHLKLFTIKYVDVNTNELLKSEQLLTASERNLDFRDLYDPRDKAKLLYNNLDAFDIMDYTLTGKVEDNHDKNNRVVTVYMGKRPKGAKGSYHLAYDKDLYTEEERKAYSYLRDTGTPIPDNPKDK
Briefly: viability-normalized secreted streptokinase activity reduction – plasminogen activation absorbance, OD405, dose response (AID 1914).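 Also: secreted streptokinase activity via plasminogen activation per viability signal from cell pellet.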 Type of assay: functional, Streptococcus pyogenes M1 GAS.

The test system of assay [5] is Streptococcus. The assay can be described thus: GAS UMAA2166 growth inhibition – luminescence, BacTiterGlo, counter-screen for streptokinase expression inhibitor project, dose response (AID 1915).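 Also: potency for reduction of bacterial viability or growth.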 In kind it is functional, organism-based.
The subject of assay [6] is Streptococcus sp. 'group A'. The assay can be described thus: Streptococcus pyogenes SK(-)GAS viability under kanamycin – luminescence, BacTiterGlo, confirmation, counter-screen for streptokinase expression inhibitor project, dose response (AID 1900). Type of assay: functional, organism-based. On the technique in general: A counterscreen serves to expose hits that act by an unwanted route or on another target.

The target of assay [7] is Disintegrin and metalloproteinase domain-containing protein 17 (Homo sapiens, UniProt P78536). Briefly: inhibition of ADAM17 substrate cleavage – biochemical, quenched FRET substrate, counter-screen for ADAM10 exosite inhibitor project, dose response (AID 743253).
The target of assay [8] is Large T antigen (Simian virus 40, UniProt P03070). Type of assay: functional, Betapolyomavirus macacae.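 Also: Confirmatory-stage PubChem screen for compounds that inhibit SV40 T antigen.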
Assay [9] has as its target Glutathione-S-transferase (Schistosoma japonicum, UniProt Q26513). Briefly: GST-antibody interaction or FRET quenching – biochemical, TR-FRET, artefact control for Vif-APOBEC3G degradation inhibitor project, dose response (AID 1117362). In kind it is functional. In general terms: Time-resolved FRET reads energy transfer from a long-lived donor to a nearby acceptor.
In assay [10] the target is T2, Protein Tat (Human immunodeficiency virus type 1 group M subtype B (isolate HXB2)(HIV-1), UniProt P04608).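 Also: tat binding to TAR RNA read out by fluorescence polarization.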
T2 sequence (P04608 whole entry): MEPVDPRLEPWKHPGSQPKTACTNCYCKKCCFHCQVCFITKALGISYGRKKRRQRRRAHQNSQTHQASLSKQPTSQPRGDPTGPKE
Type of assay: functional.

Assay [11] can be described thus: inhibitors of TRPM1-promoter reporter in SK-MEL-5 – cell-based, luciferase, dry powder, set 9, MITF inhibitor project, dose response (AID 651588). In kind it is functional.
A short description of assay [12]: MITF Orthogonal Assay: SK-MEL-5 CTG Assay Measured in Cell-Based System Using Plate Reader - 2084-02_Inhibitor_Dose_DryPowder_Activity_Set5. In kind it is functional.
The target of assay [13] is Nonstructural protein 1 (Influenza A virus, UniProt Q194T2). Type of assay: functional, Influenza A virus (A/California/07/2009(H1N1)).
A short description of assay [14]: MITF Measured in Cell-Based System Using Plate Reader - 2084-01_Inhibitor_Dose_DryPowder_Activity_Set7. Type of assay: functional.
The target of assay [15] is T3, Microphthalmia-associated transcription factor (Homo sapiens, UniProt O75030).
T3 sequence (O75030 whole entry): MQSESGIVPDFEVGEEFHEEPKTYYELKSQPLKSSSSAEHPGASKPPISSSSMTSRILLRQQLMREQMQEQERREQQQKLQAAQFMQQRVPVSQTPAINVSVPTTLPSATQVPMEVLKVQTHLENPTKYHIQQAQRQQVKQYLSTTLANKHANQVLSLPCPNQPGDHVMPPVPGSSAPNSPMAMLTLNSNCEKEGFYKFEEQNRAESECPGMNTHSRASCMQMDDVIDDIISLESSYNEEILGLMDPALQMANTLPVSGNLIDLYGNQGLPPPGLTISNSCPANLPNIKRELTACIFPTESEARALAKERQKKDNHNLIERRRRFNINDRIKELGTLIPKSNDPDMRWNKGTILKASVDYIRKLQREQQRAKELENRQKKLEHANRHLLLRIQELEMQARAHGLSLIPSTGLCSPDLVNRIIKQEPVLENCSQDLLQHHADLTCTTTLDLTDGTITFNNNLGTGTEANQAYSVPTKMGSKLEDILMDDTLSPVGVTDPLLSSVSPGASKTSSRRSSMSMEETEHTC
Briefly: reducers of TRPM1 reporter luminescence, concentration series – cell-based, SK-MEL-5, cherry-picked, set 3, MITF inhibitor project, dose response (AID 493073).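 Also: SK-MEL-5 melanoma cells with luciferase driven by the MITF target TRPM1 promoter.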 Type of assay: functional.

A short description of assay [16]: cytotoxicity in MITF-independent A375 cells – cell-based, CellTiter-Glo luminescence, dry powder, set 4, counter-screen for MITF inhibitor project, dose response (AID 624364).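 Also: A375 melanoma cells are MITF independent so this is a counter screen.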 In kind it is functional. Particulars: A-375.
Assay [17] is described as follows: growth inhibition of SK-MEL-5 melanoma cells – cell-based, CellTiter-Glo luminescence, dry powder, set 8, orthogonal assay for MITF inhibitor project, dose response (AID 651586). In kind it is functional. Background: ATP-based viability assays read luminescence as a measure of living cells.
Assay [18] in a line: melanocyte viability loss, MITF-dependent cells, cell-based, plate reader, dry powder, cytotoxicity control, dose response (AID 651920). In kind it is functional.
Assay [19] can be described thus: viability loss in MITF-independent A375 cells – cell-based, CellTiter-Glo luminescence, dry powder, set 7, counter-screen for MITF inhibitor project, dose response (AID 624490). In kind it is functional. Particulars: A-375.
The nature of assay [20]: MITF Orthogonal Assay: MALME3 CTG Assay Measured in Cell-Based System Using Plate Reader - 2084-04_Inhibitor_Dose_DryPowder_Activity_Set6. In kind it is functional. Particulars: MALME-3.
Assay [21] in a line: growth inhibition of MALME3 cells – cell-based, CellTiter-Glo luminescence, dry powder, set 5, orthogonal assay for MITF inhibitor project, dose response (AID 651584). Particulars: MALME-3. In kind it is functional.
The nature of assay [22]: cytotoxicity in MITF-independent A375 cells – cell-based, CellTiter-Glo luminescence, dry powder, set 9, counter-screen for MITF modulator project, dose response (AID 651591). Particulars: A-375. Type of assay: functional.
The subject of assay [23] is INS1. The assay can be described thus: INS-1E survival protection against cytokine death – cell-based, luminescence, retest, dose response (AID 449756).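 Also: cell death triggered by IL-1 beta plus TNF-alpha plus IFN-gamma mixture; protective hits raise ATP signal compared with cytokine alone wells.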 Type of assay: functional. Particulars: Rattus norvegicus.
A short description of assay [24]: viability loss in MITF-independent A375 cells – cell-based, CellTiter-Glo luminescence, dry powder, set 6, counter-screen for MITF inhibitor project, dose response (AID 624488). Type of assay: functional. The note with it: A-375.
The nature of assay [25]: cytotoxicity in melanoma parental cells – cell-based, CellTiter-Glo, dry powder, set 6, MITF inhibitor project, dose response (AID 624429). Type of assay: functional. The note with it: SK-MEL-5.
Assay [26] can be described thus: MITF Measured in Cell-Based System Using Plate Reader - 2084-01_Inhibitor_Dose_DryPowder_Activity_Set6. In kind it is functional.
The target of assay [27] is NAD-dependent protein deacylase sirtuin-5, mitochondrial (Homo sapiens, UniProt Q9NXA8). Briefly: sirtuin-5 deacylation blockers, concentration series – biochemical, fluorescence imaging, cherry-pick, set 5, dose response (AID 720591).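 Also: desuccinylation of succinyl peptide AMC substrate read as fluorescence after trypsin release; potency of inhibitors that lower fluorescence and may act on trypsin instead.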
A short description of assay [28]: OVCAR8 cell viability loss – plate reader, dry powder samples, PAX8 project, dose response (AID 743197). Type of assay: functional, cell-based. Particulars: OVCAR-8.
Assay [29] in a line: viability loss in A549 lung cells – cell-based, 24 h, CellTiter-Glo luminescence, cherry-picks, cytotoxicity control, dose response (AID 1053115). In kind it is functional. The note with it: A549, 24 h.
Assay [30] has as its target Paired box protein Pax-8 (Homo sapiens, UniProt Q06710). Briefly: PAX8 transcriptional activity inhibition in RMG-I – RMG-I cells, luciferase, cherry-pick, dose response (AID 687027).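 Also: luciferase reporter driven by Pax8 target thyroperoxidase promoter measured by SteadyGlo luminescence.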 In kind it is functional, cell-based.
A short description of assay [31]: OVCAR-3 cell viability loss – plate reader, dry powder samples, PAX8 inhibitor project, dose response (AID 743044). In kind it is functional, cell-based.
Assay [32] can be described thus: A2780 cell killing – plate reader, dry powder samples, cytotoxicity control, dose response (AID 743046). In kind it is functional, cell-based.

Active and inactive are the calls of the source.

As usually defined, the EC50 is the midpoint of the concentration-response curve. The term IC50 denotes the concentration that inhibits the measured activity by half. The term AC50 denotes the concentration at which the activity in the assay is half-maximal.

Chain of Disintegrin and metalloproteinase domain-containing protein 17 (P78536 whole entry, the tested form may be a part): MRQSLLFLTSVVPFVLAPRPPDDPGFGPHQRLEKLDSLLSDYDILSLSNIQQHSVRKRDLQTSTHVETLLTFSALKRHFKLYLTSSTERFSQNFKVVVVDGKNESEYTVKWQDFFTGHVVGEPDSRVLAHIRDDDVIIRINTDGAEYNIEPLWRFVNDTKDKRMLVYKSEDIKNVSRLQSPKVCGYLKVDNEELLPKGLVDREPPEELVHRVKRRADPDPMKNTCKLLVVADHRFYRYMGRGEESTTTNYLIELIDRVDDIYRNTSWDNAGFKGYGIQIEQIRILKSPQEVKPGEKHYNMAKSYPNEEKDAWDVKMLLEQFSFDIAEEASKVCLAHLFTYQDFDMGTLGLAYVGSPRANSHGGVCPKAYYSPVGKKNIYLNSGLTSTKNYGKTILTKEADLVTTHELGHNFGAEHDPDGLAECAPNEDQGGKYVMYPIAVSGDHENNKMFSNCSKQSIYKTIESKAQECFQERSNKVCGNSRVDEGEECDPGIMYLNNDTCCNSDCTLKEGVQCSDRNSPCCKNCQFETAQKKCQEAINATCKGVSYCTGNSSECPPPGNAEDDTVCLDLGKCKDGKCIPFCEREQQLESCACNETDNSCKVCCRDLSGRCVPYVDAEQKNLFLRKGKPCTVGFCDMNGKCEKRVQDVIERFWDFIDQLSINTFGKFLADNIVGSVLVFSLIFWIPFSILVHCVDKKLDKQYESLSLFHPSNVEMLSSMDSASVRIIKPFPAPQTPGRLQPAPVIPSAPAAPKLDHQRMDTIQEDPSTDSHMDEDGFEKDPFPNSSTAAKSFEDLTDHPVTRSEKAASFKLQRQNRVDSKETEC
Chain of Large T antigen (P03070 whole entry): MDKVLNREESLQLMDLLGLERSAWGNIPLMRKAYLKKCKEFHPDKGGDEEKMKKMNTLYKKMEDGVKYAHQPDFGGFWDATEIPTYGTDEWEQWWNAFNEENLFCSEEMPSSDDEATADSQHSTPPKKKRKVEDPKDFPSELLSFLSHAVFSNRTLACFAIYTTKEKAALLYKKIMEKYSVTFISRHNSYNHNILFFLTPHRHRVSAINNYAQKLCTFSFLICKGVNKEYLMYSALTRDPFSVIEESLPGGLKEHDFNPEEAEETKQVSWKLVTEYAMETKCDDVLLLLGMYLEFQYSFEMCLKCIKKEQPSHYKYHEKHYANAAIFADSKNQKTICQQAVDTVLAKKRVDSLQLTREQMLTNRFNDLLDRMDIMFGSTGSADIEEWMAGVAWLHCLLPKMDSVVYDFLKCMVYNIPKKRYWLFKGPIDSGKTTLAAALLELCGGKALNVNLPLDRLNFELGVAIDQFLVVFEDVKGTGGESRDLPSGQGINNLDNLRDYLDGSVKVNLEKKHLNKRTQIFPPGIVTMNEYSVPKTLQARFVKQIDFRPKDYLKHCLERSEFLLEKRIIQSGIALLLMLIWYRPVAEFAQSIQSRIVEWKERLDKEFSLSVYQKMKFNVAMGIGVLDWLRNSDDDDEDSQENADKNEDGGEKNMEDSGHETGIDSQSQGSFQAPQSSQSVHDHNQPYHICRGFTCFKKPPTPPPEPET
Chain of Kallikrein-7 (P49862 whole entry): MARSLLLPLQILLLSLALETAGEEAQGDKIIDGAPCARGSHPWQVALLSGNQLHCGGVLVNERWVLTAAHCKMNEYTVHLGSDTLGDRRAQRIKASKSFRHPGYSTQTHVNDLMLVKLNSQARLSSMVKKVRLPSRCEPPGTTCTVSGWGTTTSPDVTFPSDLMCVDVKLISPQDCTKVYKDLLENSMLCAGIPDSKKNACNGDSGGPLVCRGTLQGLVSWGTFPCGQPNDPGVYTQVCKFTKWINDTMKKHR
Chain of Paired box protein Pax-8 (Q06710 whole entry): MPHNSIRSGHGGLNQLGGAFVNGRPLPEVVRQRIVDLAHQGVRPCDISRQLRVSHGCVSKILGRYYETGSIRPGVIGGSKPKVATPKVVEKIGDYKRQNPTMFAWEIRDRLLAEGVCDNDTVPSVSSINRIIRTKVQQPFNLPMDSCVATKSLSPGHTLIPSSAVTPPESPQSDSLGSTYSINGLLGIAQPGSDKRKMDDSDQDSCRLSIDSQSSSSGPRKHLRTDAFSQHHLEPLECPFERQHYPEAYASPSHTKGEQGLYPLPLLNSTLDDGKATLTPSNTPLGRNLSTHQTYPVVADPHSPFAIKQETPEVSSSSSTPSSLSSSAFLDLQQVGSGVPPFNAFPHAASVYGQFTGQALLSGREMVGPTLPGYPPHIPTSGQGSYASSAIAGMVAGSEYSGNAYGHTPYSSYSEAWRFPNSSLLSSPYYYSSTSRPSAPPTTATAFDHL
Chain of Glutathione-S-transferase (Q26513 whole entry): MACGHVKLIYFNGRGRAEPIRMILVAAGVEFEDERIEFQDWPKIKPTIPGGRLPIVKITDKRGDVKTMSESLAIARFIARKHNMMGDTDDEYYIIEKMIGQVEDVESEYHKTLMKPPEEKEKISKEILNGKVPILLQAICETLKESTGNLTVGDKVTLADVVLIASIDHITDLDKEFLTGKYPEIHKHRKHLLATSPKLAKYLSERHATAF
Chain of NAD-dependent protein deacylase sirtuin-5, mitochondrial (Q9NXA8 whole entry): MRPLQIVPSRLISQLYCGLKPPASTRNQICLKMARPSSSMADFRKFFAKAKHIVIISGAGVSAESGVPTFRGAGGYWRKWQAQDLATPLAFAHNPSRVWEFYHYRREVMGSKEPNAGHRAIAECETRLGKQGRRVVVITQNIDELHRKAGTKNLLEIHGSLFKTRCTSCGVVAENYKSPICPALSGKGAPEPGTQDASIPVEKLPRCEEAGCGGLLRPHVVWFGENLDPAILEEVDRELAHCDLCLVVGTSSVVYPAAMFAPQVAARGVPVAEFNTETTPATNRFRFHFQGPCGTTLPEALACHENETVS
Chain of Nonstructural protein 1 (Q194T2 whole entry): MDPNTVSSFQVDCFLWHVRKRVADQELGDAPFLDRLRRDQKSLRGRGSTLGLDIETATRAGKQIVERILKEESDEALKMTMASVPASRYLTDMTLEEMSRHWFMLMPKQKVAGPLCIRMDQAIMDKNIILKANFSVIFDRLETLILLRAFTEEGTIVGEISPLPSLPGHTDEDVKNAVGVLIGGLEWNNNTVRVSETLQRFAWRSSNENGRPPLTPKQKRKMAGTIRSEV

On to `Cc1oc2c(CN3CCCCC3)c(O)ccc2c(=O)c1-c1ccc(Br)cc1`, for which, in assay [1], the EC50 was 9.73 µM (active).

For `COc1ccc(C(Nc2cc(C)ccn2)c2ccc3ccc(C)nc3c2O)cc1` (configuration not stated), the EC50 in assay [2] was 2.15 µM (active); in assay [3], 24.7 µM (active); in assay [4], > 150 µM (not active); in assay [5], 54.9 µM (active); in assay [6] it was 14.3 µM (active). Also, in [7], the IC50 was > 69.5 µM (inactive).

Regarding `CC(=O)N1CCN(c2ccc(NCc3ccc(C)s3)cc2)CC1`, the IC50 in assay [8] was 3.48 µM (active); in assay [9] it was 29.7 µM (active); in assay [10] it was > 100 µM (active).

On to `COC1=C(Nc2ccccc2)C(=O)c2ccccc2C1=O`, for which the AC50 in [11] was 13.9 µM (active); in assay [12], 3.1 µM (active); in assay [14], 7.24 µM (active); in assay [15] it was 4.53 µM (active); in [16] it was > 70 µM (inactive); in assay [17], 6.45 µM (active). For the same compound, the AC50 was 41.9 µM (active) in assay [18]; 41.5 µM (active) in [19]; 12.5 µM (active) in assay [20]; 12.5 µM (active) in assay [21]; > 70 µM (inactive) in assay [22]; 5.64 µM (active) in assay [23]. Also, the AC50 in [24] was 43.4 µM (active); in assay [25], 3.54 µM (active); in assay [26], 5.17 µM (active). In addition, in [13], the 50% inhibitory concentration (IC50) was 12 µM (active).

Consider `CCOC(=O)C1=CCN(S(=O)(=O)c2ccc(C)cc2)C1c1cccc(Br)c1` (configuration not stated), for which the AC50 in assay [27] was > 30 µM (inactive).

For the compound `COc1ccccc1-c1ccc2c(c1)[C@H]1[C@H](CCN1C(=O)C1CCCCC1)[C@@H](CO)N2`, the AC50 is 30.4 µM (active) in assay [28]; 42.1 µM (active) in [29]; 9.8 µM (active) in assay [30]; 18.7 µM (active) in assay [31]; 5.38 µM (active) in assay [32].
